Data on one molecule can be found in US20110021567A1, “PREPARATION OF LENALIDOMIDE” (DR. REDDY'S LABORATORIES LTD., priority 2008, published 2011).

The nature of the data set: storage stability of the amorphous form (material remains amorphous). The data set is classed as physicochemical. The note with it: five days at 0-5° C., packaged in a polyethylene bag.

Turning to `Nc1cccc2c1CN(C1CCC(=O)NC1=O)C2=O` (stereo not shown) [Example 8, 3-(4-amino-1-oxo-1,3-dihydro-2H-isoindol-2-yl)piperidine-2,6-dione], the “physical form on storage” value was “remains amorphous”.
